Data from patent publication EP0187355A1, “Process for preparing beta-lactam antibiotics” (E.R. Squibb & Sons, Inc., priority 1981, dated 1982).
Counter-ions that a name gives are not always drawn.

Key:
Experiment in all cases: MIC, agar dilution
Assay type in all cases: cell-based
[1] = test system: Acinetobacter calcoaceticus, 8333; details: Acinetobacter calcoaceticus, 8333, 18 h, K-10 agar, 10^4 CFU, 37°C, read-out: M.I.C.
Method: (§1) The following methodology is used to determine the minimum inhibitory concentration (hereinafter referred to as MIC) of the […] of this invention.
(§2) The test organisms are grown in approximately 15-20 ml of Antibiotic Assay broth (Difco) by inoculating (in tubes) the broth with a loopful of the organism from a BHI (Difco) agar slant. The inoculated tubes are incubated at 37°C for 18 to 20 hours. These cultures are assumed to contain 10^9 colony forming units (hereinafter CFU) per milliliter. The cultures are diluted 1:100 to give a final inoculum level of 10^4 CFU; dilutions are made with K-10 broth^*.
(§3) The compounds are dissolved in the appropriate diluent at a concentration of 1000 µg/ml. Twofold dilutions are made in K-10 broth resulting in a range from 1000 µg/ml to 0.5 µg/ml. 1.5 ml of each dilution is placed into individual square petri dishes to which 13.5 ml of K-10 agar^** is added. The final drug concentration in the agar ranges from 100 µg/ml to 0.05 µg/ml. Organism growth control plates containing agar only are prepared and inoculated before and after the test plates. The organisms are applied to the agar surface of each plate with the Denley Multipoint Inoculator (which delivers approximately 0.001 ml of each organism) resulting in a final inoculum level of 10^4 CFU on the agar surface.
(§4) The plates are incubated at 37 °C for 18 hours and the MIC's are determined. The MIC is the lowest concentration of compound inhibiting growth of the organism.
(§5) The tables that follow are tabulated results obtained when the B-lactams of this invention are tested against various organisms. The number following each organism refers to the number of the organism in the collection of E. R. Squibb & Sons,.Inc., Princeton, New Jersey. […] The symbol "N.T." means not tested.

[2] = test system: Citrobacter freundii, 9518; details: K-10 agar, 10^4 CFU, 37°C, 18 hours, read-out: M.I.C.
Method: as §1, §2, §3, §4, §5

[3] = test system: Enterobacter aerogenes, 10078; details: Klebsiella aerogenes, 10078, 18 h, Enterobacter aerogenes, 10078; K-10 agar, 10^4 CFU, 37°C, 18 hours; read-out: M.I.C.
Method: as §1, §2, §3, §4, §5

Escherichia coli, 10857 = details: Escherichia coli, 10857, 18 h, K-10 agar, 10^4 CFU, 37°C
Method: as §1, §2, §3, §4, §5

Escherichia coli, 10896 = details: K-10 agar, 10^4 CFU, 37°C, 18 hours
Method: as §1, §2, §3, §4, §5

Escherichia coli, 10909 = details: K-10 agar, 10^4 CFU, 37°C, 18 hours
Method: as §1, §2, §3, §4, §5

Escherichia coli, 8294 = details: Escherichia coli, 8294, 18 h, K-10 agar, 10^4 CFU, 37°C
Method: as §1, §2, §3, §4, §5

[4] = test system: Klebsiella aerogenes, 10440; details: K-10 agar, 10^4 CFU, 37°C, 18 hours, read-out: M.I.C.
Method: as §1, §2, §3, §4, §5

[5] = test system: Klebsiella pneumoniae, 9527; details: Klebsiella pneumoniae, 9527, 18 h, K-10 agar, 10^4 CFU, 37°C, read-out: M.I.C.
Method: as §1, §2, §3, §4, §5

Proteus mirabilis, 3855 = details: Proteus mirabilis, 3855, 18 h, K-10 agar, 10^4 CFU, 37°C, read-out: M.I.C.
Method: as §1, §2, §3, §4, §5

Proteus rettgeri, 8479 = details: Providencia rettgeri, K-10 agar, 10^4 CFU, 37°C, 18 hours, read-out: M.I.C.
Method: as §1, §2, §3, §4, §5

Proteus vulgaris, 9416 = details: K-10 agar, 10^4 CFU, 37°C, 18 hours, read-out: M.I.C.
Method: as §1, §2, §3, §4, §5

[6] = test system: Pseudomonas aeruginosa, 8329; details: K-10 agar, 10^4 CFU, 37°C, 18 hours, read-out: M.I.C.
Method: as §1, §2, §3, §4, §5

[7] = test system: Pseudomonas aeruginosa, 9545; details: Pseudomonas aeruginosa, 9545, 18 h, K-10 agar, 10^4 CFU, 37°C, read-out: M.I.C.
Method: as §1, §2, §3, §4, §5

Salmonella typhosa, 1195 = details: Salmonella enterica, TYPHOSA, 18 h, K-10 agar, 10^4 CFU, 37°C
Method: as §1, §2, §3, §4, §5

[8] = test system: Serratia marcescens, 9783; details: Serratia marcescens, 9783, 18 h, K-10 agar, 10^4 CFU, 37°C, read-out: M.I.C.
Method: as §1, §2, §3, §4, §5

Shigella sonnei, 8449 = details: Shigella sonnei, 8449, 18 h, K-10 agar, 10^4 CFU, 37°C
Method: as §1, §2, §3, §4, §5

[9] = test system: Staphylococcus aureus, 10165; details: Staphylococcus aureus, 10165; K-10 agar, 10^4 CFU, 37°C, 18 hours; read-out: M.I.C.
Method: as §1, §2, §3, §4, §5

[10] = test system: Staphylococcus aureus, 1276; details: Staphylococcus aureus, 1276; K-10 agar, 10^4 CFU, 37°C, 18 hours; read-out: M.I.C.
Method: as §1, §2, §3, §4, §5

[11] = test system: Staphylococcus aureus, 2399; details: Staphylococcus aureus, 2399, 18 h, Staphylococcus aureus, 2399; K-10 agar, 10^4 CFU, 37°C, 18 hours; read-out: M.I.C.
Method: as §1, §2, §3, §4, §5

[12] = test system: Staphylococcus aureus, 2400; details: Staphylococcus aureus, 2400; K-10 agar, 10^4 CFU, 37°C, 18 hours; read-out: M.I.C.
Method: as §1, §2, §3, §4, §5

[13] = test system: Streptococcus faecalis, 9011; details: Enterococcus faecalis; Streptococcus faecalis, 9011; K-10 agar, 10^4 CFU, 37°C, 18 hours; read-out: M.I.C.
Method: as §1, §2, §3, §4, §5

[14] = test system: Enterobacter cloacae, 8236; details: Enterobacter cloacae, 8236, 18 h, K-10 agar, 10^4 CFU, 37°C
Method: as §1, §2, §3
(§6) The MIC is the lowest concentration of compound inhibiting growth of the organism.
(§7) The number following each organism refers to the number of the organism in the collection of E. R. Squibb & Sons,.Inc., Princeton, New Jersey. […] The symbol "N.T." means not tested.

Micrococcus luteus, 2495 = details: Micrococcus luteus, 2495, 18 h, K-10 agar, 10^4 CFU, 37°C, read-out: M.I.C.
Method: as §1, §2, §3, §6, §7

[15] = test system: Streptococcus agalactiae, 9287; details: Streptococcus agalactiae, 9287, 18 h, K-10 agar, 10^4 CFU, 37°C, read-out: M.I.C.
Method: as §1, §2, §3, §6, §7

Row | SMILES | MIC [1] [µg/mL] | MIC [2] [µg/mL] | MIC [3] [µg/mL] | MIC (Escherichia coli, 10857) [µg/mL] | MIC (Escherichia coli, 10896) [µg/mL] | MIC (Escherichia coli, 10909) [µg/mL] | MIC (Escherichia coli, 8294) [µg/mL] | MIC [4] [µg/mL] | MIC [5] [µg/mL] | MIC (Proteus mirabilis, 3855) [µg/mL] | MIC (Proteus rettgeri, 8479) [µg/mL] | MIC (Proteus vulgaris, 9416) [µg/mL] | MIC [6] [µg/mL] | MIC [7] [µg/mL] | MIC (Salmonella typhosa, 1195) [µg/mL] | MIC [8] [µg/mL] | MIC (Shigella sonnei, 8449) [µg/mL] | MIC [9] [µg/mL] | MIC [10] [µg/mL] | MIC [11] [µg/mL] | other results
1 | CC1(C)C(NC(=O)Cc2ccccc2)C(=O)N1S(=O)(=O)O (racemic) [Example 26, (±)-4,4-Dimethyl-2-oxo-3-[(phenylacetyl)amino]-1-azetidinesulfonic acid, potassium salt] | > 100 | > 100 | > 100 | 50 | > 100 | > 100 | > 100 | > 100 | > 100 | > 100 | 100 | 100 | > 100 | > 100 | > 100 | > 100 | > 100 | > 100 | > 100 | > 100 | MIC [12]: > 100 µg/mL; MIC [13]: > 100 µg/mL; MIC [14]: > 100 µg/mL; MIC (Micrococcus luteus, 2495): > 100 µg/mL; MIC [15]: > 100 µg/mL
2 | CC1C(NC(=O)OCc2ccccc2)C(=O)N1S(=O)(=O)O (racemic) [Example 1, (±―cis)-4-Methyl-2-oxo-3-[[(phenylmethoxy)carbonyl]-amino]-1-azetidinesulfonic acid, potassium salt] | > 100 | > 100 | > 100 | > 100 | > 100 | > 100 | > 100 | > 100 | > 100 | > 100 | > 100 | > 100 | > 100 | > 100 | > 100 | > 100 | > 100 | 100 | 100 | 50 | MIC [12]: 50 µg/mL; MIC [13]: > 100 µg/mL; MIC [14]: > 100 µg/mL; MIC (Micrococcus luteus, 2495): > 100 µg/mL; MIC [15]: 100 µg/mL
3 | C[C@@H]1[C@H](NC(=O)[C@H](NC(=O)N2CCN(N=Cc3ccco3)C2=O)c2ccccc2)C(=O)N1S(=O)(=O)O (relative stereo) [Example 21, [3S-[3α(R*),4α]]-3-[[[[[3-[(2-furanylmethylene)-amino]-2-oxo-1-imidazolidinyl]carbonyl]-amino]phenylacetyl]amino]-4-methyl-2-oxo-1-azetidinesulfonic acid, potassium salt] | 50 | 1.6 | 3.1 | < 0.05 | 0.4 | 0.2 | 1.6 | 1.6 | 0.2 | 0.8 | 1.6 | < 0.05 | 12.5 | 12.5 | 0.4 | 3.1 | 0.8 | 100 | 3.1 | 3.1 | MIC [12]: 6.3 µg/mL; MIC [13]: > 100 µg/mL; MIC [14]: 1.6 µg/mL; MIC (Micrococcus luteus, 2495): 3.1 µg/mL; MIC [15]: 0.4 µg/mL
